Source: patent US7576094B2, “Spiro derivatives as lipoxygenase inhibitors” (Eli Lilly and Company, priority 2004, dated 2009)

Columns and labels:
[1] = tested on: LTB4 production in human whole blood; experiment: Inhibition of LTB4 Production in Blood; type: cell-based; conditions: 1 h, 20 μM A23187, 60 minutes at 37° C., LTB4 in plasma by ELISA, read-out: protection against LTB4 at an EC50
Protocol: • Human whole blood (Na citrate) (Stanford Blood Center) • A23187, (Sigma, Cat# C-7522) • Leukotriene B4 EIA reagents (Cayman Chemical, Cat # 520111) • BWA4C (Sigma, Cat # B7559) Procedure Preparation of A23187:
A23187 was prepared as a 10 mM stock solution in DMSO (aliquots can be stored at −20° C.). On the day of the assay the stock solution was diluted as follows: 70 μL 10 mM stock added to 1.6 mL plasma to give a working concentration of 0.42 mM.
From a 30 mM stock solution in DMSO, test articles were diluted to a working concentration of 600 μM in PBS (i.e. 10 μL stock solution+490 μL PBS). This is the highest concentration (gives a final testing concentration of 30 μM). From this 600 μM solution test articles were serially diluted 1:3 in PBS to give a dose-response curve. 10 μL of each concentration of test article was then added to 4 wells of a 96-well plate (i.e. testing in quadruplicate). A positive control compound, BWA4C was used in every assay.
Human whole blood was added to the plates containing compounds (190 μL per well) and mixed well. The blood was incubated with compound at 37° C. for 15 minutes. Following this incubation, 10 μL of 0.42 mM A23187 was added to each well except the negative control wells to give a final calcium ionophore concentration of 20 μM. The plates were then incubated at 37° C. for 60 minutes. After the incubation period, plates were centrifuged for 15 min at 2000 g at 4° C. in sealed microplate buckets. Plasma was then removed for quantitation of LTB4 levels by ELISA.
LTB4 levels in the plasma were determined using a commercially available ELISA kit from Cayman Chemicals. The ELISA was run according to the manufacturer's instructions. The LTB4 levels in the vehicle control sample were then compared to those in which the test article had been added. From this a percent inhibition of LTB4 production by each concentration of test article was calculated and the IC50 was determined.

[2] = target: T1, human recombinant 5-Lipoxygenase (Homo sapiens, UniProt P09917); experiment: 5-Lipoxygenase Enzyme Assay; type: biochemical; conditions: 70 μM arachidonic acid, 10 minute incubation at room temperature, FOX reagent, absorbance at 620 nm; read-out: inhibition of 5-Lipoxygenase with an IC50
T1 sequence (P09917 1-674): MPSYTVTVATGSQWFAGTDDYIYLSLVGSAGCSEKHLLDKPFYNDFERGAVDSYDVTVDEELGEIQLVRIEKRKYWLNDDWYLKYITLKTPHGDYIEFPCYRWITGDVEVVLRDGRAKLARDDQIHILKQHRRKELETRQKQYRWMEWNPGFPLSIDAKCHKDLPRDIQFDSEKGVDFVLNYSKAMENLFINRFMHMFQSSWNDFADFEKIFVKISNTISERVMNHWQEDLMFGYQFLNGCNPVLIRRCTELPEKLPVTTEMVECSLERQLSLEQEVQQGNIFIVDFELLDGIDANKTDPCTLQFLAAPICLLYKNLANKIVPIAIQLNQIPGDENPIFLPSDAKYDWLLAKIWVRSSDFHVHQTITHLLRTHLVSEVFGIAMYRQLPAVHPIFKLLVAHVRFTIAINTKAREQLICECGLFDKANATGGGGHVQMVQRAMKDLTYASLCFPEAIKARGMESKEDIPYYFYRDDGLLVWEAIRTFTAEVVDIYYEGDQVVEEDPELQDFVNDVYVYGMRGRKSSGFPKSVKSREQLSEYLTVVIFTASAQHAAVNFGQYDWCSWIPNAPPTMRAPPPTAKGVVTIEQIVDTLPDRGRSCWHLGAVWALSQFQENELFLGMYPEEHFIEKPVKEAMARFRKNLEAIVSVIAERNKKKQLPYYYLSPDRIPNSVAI
In short: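 Recombinant human 5-LOX in 50 mM Tris-HCl pH 7.4 was preincubated with compound, then 70 μM arachidonic acid was added for 10 min at room temperature. Hydroperoxide was read by FOX reagent (ferric xylenol orange, 1 h complex formation) as absorbance at 620 nm. Five concentrations in triplicate were tested, starting at 10 μM.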

[3] = tested on: release of the leukotriene LTB4 from a neutrophil cell line (MPRO cell line); experiment: LTB4-Cell Assay; type: cell-based; conditions: Mus musculus, 1 h, read-out: inhibition of LTB4 with an EC50
From the text: • This procedure was used for measuring the release of the leukotriene LTB4 from a neutrophil cell line using a competitive ELISA technique. Materials and Equipments Materials for Cell Preparation and Experiment • MPRO cell line (ATCC, Catalog # CRL-11422) • Calcium ionophore (A23187) (Sigma, Catalog # C7522) • Nordihydroguaiaretic acid (NDGA) (BioMol ,Catalog # EI101-0001) • Retinoic Acid (all-trans) (ATRA) (Sigma, Catalog # 95152) • Sterile, tissue-culture treated 96-well plates (Corning, Catalog # 3614) Materials for LTB4 ELISA • Precoated (Mouse Anti-Rabbit IgG) EIA 96 Well Strip Plates (Cayman, Catalog # 400004) • Leukotriene B4 AChE Tracer (Cayman Catalog # 420110) • Leukotriene B4 EIA Antiserum (Cayman Catalog # 420112) • Ellman's Reagent (Cayman Catalog # 400050) • EIA Buffer Concentrate (10×) (Cayman Catalog # 400060) • Wash Buffer Concentrate (400×) (Cayman Catalog # 400062) • Plastic plate covers (Cayman Catalog # 400012) Procedure
A mouse promyelocytic cell line (MPRO) was used in this assay. These cells are committed immature neutrophils that can be differentiated into mature neutrophils by treatment with 10 μM all-trans retinoic acid for 72 hours.
Following 72 hours of differentiation, cells were stimulated with 1 μM of a calcium ionophore (A23187) in the presence or absence of test compound or vehicle for 1 hour at 37° C. After this time, supernatant was removed from the cells and the LTB4 levels were determined following manufacturer's instructions, using a Leukotriene B4 EIA kit from Cayman (Cat # 5201 11). The negative controls were media samples from differentiated but un-stimulated cells. The compounds were screened at 5 concentrations in quadruplicate starting at 10 μM.

Structure (SMILES) | EC50 [1] [µM] | IC50 [2] [µM] | EC50 [3] [µM]
CCc1cc2c(c(CC)c1O)/C(=N/OC)CC1(CCC1)O2 [5,7-diethyl-6-hydroxyspiro[chromene-2,1′-cyclobutan]-4(3H)-one O-methyloxime] | < 10 | < 0.3 | < 5
Cc1cc2c(c(C)c1O)/C(=N/O)CC1(CCC1)O2 [6-hydroxy-5,7-dimethylspiro[chromene-2,1′-cyclobutan]-4(3H)-one oxime] | < 10 | < 0.3 | < 5
Cc1c(C)c2c(c(C)c1O)C(C#N)CC1(CCC1)O2 (centres unmarked) [6-hydroxy-5,7,8-trimethyl-3,4-dihydrospiro[chromene-2,1′-cyclobutane]-4-carbonitrile] | < 10 | < 0.3 | < 5
CCO/N=C1\CC2(CCC2)Sc2cc(C)c(O)c(C)c21 [6′-hydroxy-5′,7′-dimethylspiro[cyclobutane-1,2′-thiochromen]-4′(3′H)-one O-ethyloxime] | < 10 | < 0.3 | < 5
COCC1=Cc2c(C)c(O)c(C)c(C)c2OC12CCC2 [3-(methoxymethyl)-5,7,8-trimethylspiro[chromene-2,1′-cyclobutan]-6-ol] | < 10 | < 0.3 | < 5
CCONCc1c(C)c(O)c(C)c2c1OC1(CCC1)CC2 [8-[(ethoxyamino)methyl]-5,7-dimethyl-3,4-dihydrospiro[chromene-2,1′-cyclobutan]-6-ol] | < 10 | < 0.3 | < 5
CCONCC1Cc2c(cc(C)c(O)c2C)OC12CCC2 (centres unmarked) [3-[(ethoxyamino)methyl]-5,7-dimethyl-3,4-dihydrospiro-[chromene-2,1′-cyclobutan]-6-ol] | < 10 |  | < 5
CONCc1c(C)c(O)c(C)c2c1OC1(CCC1)CC2 [8-[(methoxyamino)methyl]-5,7-dimethyl-3,4-dihydrospiro[chromene-2,1′-cyclobutan]-6-ol] | < 10 | < 0.3 | < 5
COC1c2c(C)c(O)c(C)c(C)c2OC2(CCC2)C1C (centres unmarked) [4-methoxy-3,5,7,8-tetramethyl-3,4-dihydrospiro[chromene-2,1′-cyclobutan]-6-ol] | < 10 |  | < 5
CONCC1=Cc2c(cc(C)c(O)c2C)OC12CCC2 [3-[(methoxyamino)methyl]-5,7-dimethylspiro[chromene-2,1′-cyclobutan]-6-ol] | < 10 |  | < 5
C=Cc1c(C)c(O)c(C)c2c1OC1(CCC1)CC2 [5,7-dimethyl-8-vinyl-3,4-dihydrospiro[chromene-2,1′-cyclobutan]-6-ol] |  | < 0.3 | < 5
Cc1c(C)c2c(c(C)c1O)CC(CO)C1(CCC1)O2 (centres unmarked) [3-(hydroxymethyl)-5,7,8-trimethyl-3,4-dihydrospiro[chromene-2,1′-cyclobutan]-6-ol] | < 10 |  | < 5
COC(=O)C1CC(c2c(C)c(O)c(C)c3c2OC2(CCC2)CC3)=NO1 (centres unmarked) [methyl 3-(6-hydroxy-5,7-dimethyl-3,4-dihydrospiro[chromene-2,1′-cyclobutan]-8-yl)-4,5-dihydroisoxazole-5-carboxylate] |  | < 0.3 | < 5
CCCCCCNC1c2c(C)c(O)c(C)c(C)c2OCC12CCC2 (centres unmarked) [4-(hexylamino)-5,7,8-trimethylspiro[chroman-3,1′-cyclobutan]-6-ol] |  | < 0.3 | < 5
Cc1c2c(c(C)c(Cl)c1OC(=O)CN(C)C)OC1(CCC1)CC2 [7-chloro-5,8-dimethyl-3,4-dihydrospiro[chromene-2,1′-cyclobutan]-6-yl (dimethylamino)acetate] |  | < 0.3 | < 5
COC1Cc2c(C)c(O)c(C)c(C)c2OC12CCC2 (centres unmarked) [3-methoxy-5,7,8-trimethyl-3,4-dihydrospiro[chromene-2,1′-cyclobutan]-6-ol] | < 10 |  | < 5
Cc1c(C)c2c(c(C)c1O)C(=NO)CC1(CCC1)O2 [6-hydroxy-5,7,8-trimethylspiro[chromene-2,1′-cyclobutan]-4(3H)-one oxime] | < 10 |  | < 5
CCc1cc2c(c(CC)c1O)CC(COC(N)=O)C1(CCC1)O2 (centres unmarked) [(5,7-diethyl-6-hydroxyspiro[chroman-2,1′-cyclobutane]-3-yl)methyl carbamate] | < 10 |  | < 5
Cc1c(C)c2c(c(C)c1O)C(=O)CC1(CCC1)S2 [6′-hydroxy-5′,7′,8′-trimethylspiro[cyclobutane-1,2′-thiochromen]-4′(3′H)-one] |  | < 0.3 | < 5
Cc1cc2c(c(C)c1O)C(NS(=O)(=O)c1ccccc1)CC1(CCC1)O2 (centres unmarked) [N-(6-hydroxy-5,7-dimethyl-3,4-dihydrospiro[chromene-2,1′-cyclobutan]-4-yl)benzenesulfonamide] |  | < 0.3 | < 5
Cc1c(C)c2c(c(C)c1O)C=C(C(C)O)C1(CCC1)O2 (centres unmarked) [3-(1-hydroxyethyl)-5,7,8-trimethylspiro[chromene-2,1′-cyclobutan]-6-ol] | < 10 |  | < 5
CCONC1CC2(CCC2)Oc2cc(C)c(O)c(C)c21 (centres unmarked) [4-(ethoxyamino)-5,7-dimethyl-3,4-dihydrospiro[chromene-2,1′-cyclobutan]-6-ol] |  | < 0.3 | < 5
CCc1cc2c(c(CC)c1O)CC(CO)C1(CCC1)O2 (centres unmarked) [5,7-diethyl-3-(hydroxymethyl)spiro[chroman-2,1′-cyclobutan]-6-ol] | < 10 |  | < 5
CCO/N=C1\CC2(CCC2)Oc2cc(CC)c(O)c(CC)c21 [5,7-diethyl-6-hydroxyspiro[chromene-2,1′-cyclobutan]-4(3H)-one O-ethyloxime] |  | < 0.3 | < 5
CC1=Cc2c(C)c(O)c(C)c(C)c2OC12CCC2 [3,5,7,8-tetramethylspiro[chromene-2,1′-cyclobutan]-6-ol] | < 10 |  | < 5
Cc1c(C)c2c(c(C)c1O)CC(O)C1(CCC1)O2 (centres unmarked) [5,7,8-trimethyl-3,4-dihydrospiro[chromene-2,1′-cyclobutane]-3,6-diol] | < 10 |  | < 5
